{"source": "patent EP0811056B1", "about": "“PEPTIDES FOR TISSUE AND CELL CULTURE MEDIA” (QUEST INTERNATIONAL B.V., priority 1995, dated 1996)", "origin": "cited, not measured here", "conditions": "on a glutamine basis", "data": [{"substance": "Glycyl-L-glutamine", "values": [{"measurement": "amount of the dipeptide needed compared with free glutamine to obtain the same result", "result": "up to 6 times"}]}]}
